US9180111B2, “Reduction in complement activation and inflammation during tissue injury by carotenoids, carotenoid analogs, or derivatives thereof” (Cardax Pharma, Inc., priority 2005, dated 2015)

Tests used:
[1] = test system: cardiac-specific troponin I (cTnI); test: Measurement of cardiac-specific troponin I by ELISA; type: in vivo, rabbit; settings: rabbits, 50 mg/kg i.v. 4 days; not statistically significant
Method: Whole blood was drawn at baseline (pre-ischemia) and at the end of reperfusion for the determination of cardiac-specific troponin I (cTnI). Serum levels of the proteins were measured using a commercially available ELISA kit. Collected plasma samples were prepared from whole blood and were snap frozen in liquid nitrogen. The samples were stored at −80° C. until the day of the assay when they were thawed over ice and diluted appropriately with the sample diluent supplied with each assay kit. Determination of the target protein using a protein standard curve was performed according to standard procedure in the art.

[2] = test system: New Zealand white rabbits; test: Myocardial infarct size after 30 min LAD coronary artery occlusion and 3 h reperfusion (tetrazolium method); type: in vivo, rabbit
Method: Male New Zealand white rabbits (2.3-2.6 kg) were assigned randomly to two separate groups. Each animal received DDA aqueous formulation (50 mg/kg), or an equal volume of sterile NaCl solution, once per day intravenously. The dose of DDA was selected based on the findings of previous investigations in which it was determined that a dosing regimen over four days produced statistically significant myocardial salvage in Sprague-Dawley rats (41% mean salvage at 50 mg/kg) and mongrel canines (68% mean salvage at 50 mg/kg) after ischemia and reperfusion (Gross and Lockwood, 2004; Gross and Lockwood, In Press). The animals in each group received the respective treatments on each of four consecutive days, with the experimental protocol being initiated on fifth day.
One day after the last treatment (DDA or placebo), rabbits were anesthetized with a combination of xylazine (3.0 mg/kg) and ketamine (35 mg/kg) administered intramuscularly, followed by an intravenous injection of sodium pentobarbital (15 mg/kg). An endotracheal tube was inserted and the animals were placed on a positive pressure ventilator (Harvard Apparatus, Cambridge, Mass.). The right jugular vein was cannulated for blood sampling and the right carotid artery was instrumented with a Millar catheter micro-tip pressure transducer (Millar Instruments Inc., Houston, Tex.). The Millar catheter transducer was positioned immediately above the aortic valves to monitor aortic blood pressure. The lead II electrocardiogram was monitored throughout the protocol. A left thoracotomy and pericardiotomy were performed, followed by identification of the left anterior descending coronary artery. A silk suture (3-0; Genzyme Corporation, Fall River, Mass.) was passed under the artery and around a short length of polyethylene tubing. […] Coronary artery occlusion was maintained for 30 min after which time reperfusion was initiated by withdrawing the polyethylene tubing. […]

superoxide anion = test: Direct superoxide anion scavenging by EPR spectroscopy (DEPMPO spin-trap) in PMA-stimulated isolated human neutrophils; type: cell-based; settings: aqueous phase
Method: Human polymorphonuclear leukocytes (PMNs) were isolated from freshly sampled venous blood of a single volunteer by Percoll density gradient centrifugation as described previously. Briefly, each 10 mL of whole blood was mixed with 0.8 mL of 0.1 M EDTA and 25 mL of saline. The diluted blood was then layered over 9 mL of Percoll at a specific density of 1.080 g/mL. After centrifugation at 400×g for 20 min at 20° C., the plasma, mononuclear cell, and Percoll layers were removed. Erythrocytes were subsequently lysed by addition of 18 mL of ice-cold water for 30 s, followed by 2 mL of 10×PIPES buffer (25 mM PIPES, 110 mM NaCl, and 5 mM KCl, titrated to pH 7.4 with NaOH). Cells were then pelleted at 4° C., the supernatant was decanted, and the procedure was repeated. […] Afterward, PMNs were counted by light microscopy on a hemocytometer. […] The microwave frequency was measured with a Model 575 microwave counter (EIP Microwave, Inc., San Jose, Calif.). […]
Instrument settings used in the spin-trapping experiments were as follows: modulation amplitude, 0.32 G; time constant, 0.16 s; scan time, 60 s; modulation frequency, 100 kHz; microwave power, 20 milliwatts; and microwave frequency, 9.76 GHz. The samples were placed in a quartz EPR flat cell, and spectra were recorded. The component signals in the spectra were identified and quantified as reported previously.

**Q.** How did the “mean serum cTnI concentration at the end of reperfusion versus vehicle controls” value [1] turn out when `CC1=C(/C=C/C(C)=C/C=C/C(C)=C/C=C/C=C(C)/C=C/C=C(C)/C=C/C2=C(C)C(=O)C(OC(=O)CCC(=O)O)CC2(C)C)C(C)(C)CC(OC(=O)CCC(=O)O)C1=O` (centres unmarked) [DDA, disodium disuccinate astaxanthin] was run?
**A.** lower mean cTnI concentration

**Q.** And the mean myocardial salvage ([2]; 50 mg/kg daily i.v. for four days, versus placebo)?
**A.** 51%

**Q.** What about the “mean infarct size expressed as a percentage of the area at risk” value ([2]; 50 mg/kg/day i.v. for 4 days, 30 min occlusion, 3 h reperfusion, mean ± S.E.M.) of the same compound?
**A.** 25.8±4.2%

**Q.** What about the “heart rate, blood pressure, blood gases versus saline group” value ([2]; baseline and throughout protocol on day 5) of the same compound?
**A.** No differences

**Q.** What about the “direct aqueous superoxide anion scavenging” value (superoxide anion) of the same compound?
**A.** potent direct scavengers of superoxide anion
